Measurements published in patent publication US12630600B2 (MEDIMMUNE LIMITED, priority 2022, dated 2026).
Starred links: 1 amine or outer side, 2 acyl side, 3 side chain; linkers in the order of their positions; H or OH if unused. Non-standard residues stand in square brackets, D forms with d. Residues, ends and D or L forms follow the SMILES beside them. Groups on a side chain read outwards from the residue. *: point of attachment. C20 diacid = O=C(O)CCCCCCCCCCCCCCCCCCC(=O)*; C18 diacid = O=C(O)CCCCCCCCCCCCCCCCC(=O)*; γGlu = O=C(O)[C@H](CCC(=O)[*:2])N[*:1]; αMeF = C[C@](N)(Cc1ccccc1)C(=O)O; AEEA = NCCOCCOCC(=O)O; Aib = CC(C)(N)C(=O)O

Target: T1, human GLP-1 receptor (hGLP-1R) (Homo sapiens, UniProt P43220)
T1 construct: expressed in transfected cells; host or cells: CHO
Assay: cAMP production (HTRF) in CHO cells expressing human GLP-1 receptor
Type: cell-based
Details: Table 8; % GLP-1R activity relative to GLP-1 / % GlucR activity relative to glucagon
Description: Cells were re-suspended in assay buffer at a batch-dependent optimized concentration (typically hGLP-1R cells at 1×10^5 cells/mL, hGCGR cells at 2×10^5 cells/mL).
Cells were added to the assay plate using a multidrop dispenser and incubated at room temperature for 30 minutes before measuring the cAMP level using a cAMP dynamic 2 homogeneous time resolved Fluorescence (HTRF) kit (Cisbio Bioassays #62AM4PEJ) following the two-step protocol as per manufacturer's recommendations. In brief, anti-cAMP cryptate (donor fluorophore) and cAMP-d2 (acceptor fluorophore) were made up separately by diluting each 1 in 20 in conjugate and lysis buffer provided in the kit. Anti-cAMP cryptate was added to all wells of the assay plate, followed by cAMP-d2 added to all wells except non-specific binding (NSB) wells (to which conjugate and lysis buffer was added).
Data was transformed to % Delta F as described in the manufacturer's guidelines and analyzed by 4-parameter logistic fit to determine EC50 values.

T1 sequence (P43220 24-463): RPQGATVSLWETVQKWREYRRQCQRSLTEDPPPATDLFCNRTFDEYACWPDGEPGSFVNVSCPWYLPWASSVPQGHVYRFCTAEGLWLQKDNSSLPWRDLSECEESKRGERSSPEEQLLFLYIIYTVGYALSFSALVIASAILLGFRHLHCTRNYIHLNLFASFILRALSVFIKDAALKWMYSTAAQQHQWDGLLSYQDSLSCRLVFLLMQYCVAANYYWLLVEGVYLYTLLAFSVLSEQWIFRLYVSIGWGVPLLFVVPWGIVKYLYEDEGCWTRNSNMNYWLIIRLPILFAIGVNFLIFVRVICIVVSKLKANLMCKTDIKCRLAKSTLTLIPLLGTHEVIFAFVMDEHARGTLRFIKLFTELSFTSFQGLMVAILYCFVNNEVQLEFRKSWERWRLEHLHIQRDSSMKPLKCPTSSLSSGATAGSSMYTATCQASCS

Row | % Relative Potency Ratio | Compound
1 | 7.2 | CC[C@H](C)[C@H](NC(=O)C(C)(C)NC(=O)[C@H](CCCCNC(=O)COCCOCCNC(=O)COCCOCCNC(=O)CC[C@H](NC(=O)CC[C@H](NC(=O)CCCCCCCCCCCCCCCCC(=O)O)C(=O)O)C(=O)O)NC(=O)[C@@H](NC(=O)[C@](C)(Cc1ccccc1)NC(=O)[C@H](CC(=O)O)NC(=O)[C@H](CCC(N)=O)NC(=O)[C@H](C)NC(=O)[C@H](C)NC(=O)[C@H](CCCNC(=N)N)NC(=O)[C@H](CO)NC(=O)[C@H](CC(=O)O)NC(=O)[C@H](CC(C)C)NC(=O)[C@](C)(Cc1ccccc1)NC(=O)[C@H](CCCCN)NC(=O)[C@H](CO)NC(=O)[C@@H](NC(=O)[C@H](CC(=O)O)NC(=O)[C@H](CO)NC(=O)[C@@H](NC(=O)[C@](C)(Cc1ccccc1)NC(=O)[C@H](CO)NC(=O)CNC(=O)[C@H](Cc1c[nH]cn1)NC(=O)C(C)(C)NC(=O)[C@@H](N)Cc1c[nH]cn1)[C@@H](C)O)C(C)C)C(C)C)C(=O)N[C@@H](C)C(=O)N[C@@H](CC(N)=O)C(=O)N[C@H](C(=O)NCC(=O)NCC(N)=O)[C@@H](C)O [Peptide 373] (H-H[Aib]HGS[αMeF]TSDVSK[αMeF]LDSRAAQD[αMeF]VK([AEEA-AEEA-γGlu-γGlu-C18 diacid])[Aib]IANTGG-NH2; N-terminus assumed)
2 | 5.1 | CC[C@H](C)[C@H](NC(=O)[C@H](Cc1c[nH]c2ccccc12)NC(=O)[C@H](CCCCNC(=O)COCCOCCNC(=O)COCCOCCNC(=O)CC[C@H](NC(=O)CC[C@H](NC(=O)CCCCCCCCCCCCCCCCC(=O)O)C(=O)O)C(=O)O)NC(=O)[C@@H](NC(=O)[C@H](Cc1ccccc1)NC(=O)[C@H](CC(=O)O)NC(=O)[C@H](CCC(N)=O)NC(=O)[C@H](C)NC(=O)[C@H](C)NC(=O)[C@H](CCCNC(=N)N)NC(=O)[C@H](CO)NC(=O)[C@H](CC(=O)O)NC(=O)[C@H](CC(C)C)NC(=O)[C@](C)(Cc1ccccc1)NC(=O)[C@H](CCCCN)NC(=O)[C@H](CO)NC(=O)[C@@H](NC(=O)[C@H](CC(=O)O)NC(=O)[C@H](CO)NC(=O)[C@@H](NC(=O)[C@](C)(Cc1ccccc1)NC(=O)[C@H](CO)NC(=O)CNC(=O)[C@H](Cc1c[nH]cn1)NC(=O)C(C)(C)NC(=O)[C@@H](N)Cc1c[nH]cn1)[C@@H](C)O)C(C)C)C(C)C)C(=O)N[C@@H](C)C(=O)N[C@@H](CC(N)=O)C(=O)N[C@H](C(=O)NCC(N)=O)[C@@H](C)O [Peptide 363] (H-H[Aib]HGS[αMeF]TSDVSK[αMeF]LDSRAAQDFVK([AEEA-AEEA-γGlu-γGlu-C18 diacid])WIANTG-NH2; N-terminus assumed)
3 | 2.5 | CC[C@H](C)[C@H](NC(=O)[C@H](Cc1c[nH]c2ccccc12)NC(=O)[C@H](CCCCNC(=O)COCCOCCNC(=O)COCCOCCNC(=O)CC[C@H](NC(=O)CC[C@H](NC(=O)CCCCCCCCCCCCCCCCCCC(=O)O)C(=O)O)C(=O)O)NC(=O)[C@@H](NC(=O)[C@H](Cc1ccccc1)NC(=O)[C@H](CC(=O)O)NC(=O)[C@H](CCC(N)=O)NC(=O)[C@H](C)NC(=O)[C@H](C)NC(=O)[C@H](CCCNC(=N)N)NC(=O)[C@H](CO)NC(=O)[C@H](CC(=O)O)NC(=O)[C@H](CC(C)C)NC(=O)[C@](C)(Cc1ccccc1)NC(=O)[C@H](CCCCN)NC(=O)[C@H](CO)NC(=O)[C@@H](NC(=O)[C@H](CC(=O)O)NC(=O)[C@H](CO)NC(=O)[C@@H](NC(=O)[C@](C)(Cc1ccccc1)NC(=O)[C@H](CO)NC(=O)CNC(=O)[C@H](Cc1c[nH]cn1)NC(=O)C(C)(C)NC(=O)[C@@H](N)Cc1c[nH]cn1)[C@@H](C)O)C(C)C)C(C)C)C(=O)N[C@@H](C)C(=O)N[C@@H](CC(N)=O)C(=O)N[C@H](C(N)=O)[C@@H](C)O [Peptide 377] (H-H[Aib]HGS[αMeF]TSDVSK[αMeF]LDSRAAQDFVK([AEEA-AEEA-γGlu-γGlu-C20 diacid])WIANT-NH2)
4 | 2.4 | CC[C@H](C)[C@H](NC(=O)[C@H](CO)NC(=O)[C@H](CCCCNC(=O)COCCOCCNC(=O)COCCOCCNC(=O)CC[C@H](NC(=O)CCCCCCCCCCCCCCCCC(=O)O)C(=O)O)NC(=O)[C@@H](NC(=O)[C@](C)(Cc1ccccc1)NC(=O)[C@H](CC(=O)O)NC(=O)[C@H](CCC(N)=O)NC(=O)[C@H](C)NC(=O)[C@H](C)NC(=O)[C@H](CCCNC(=N)N)NC(=O)[C@H](CO)NC(=O)[C@H](CC(=O)O)NC(=O)[C@H](CC(C)C)NC(=O)[C@](C)(Cc1ccccc1)NC(=O)[C@H](CCCCN)NC(=O)[C@H](CO)NC(=O)[C@@H](NC(=O)[C@H](CC(=O)O)NC(=O)[C@H](CO)NC(=O)[C@@H](NC(=O)[C@](C)(Cc1ccccc1)NC(=O)[C@H](CO)NC(=O)CNC(=O)[C@H](Cc1c[nH]cn1)NC(=O)C(C)(C)NC(=O)[C@@H](N)Cc1c[nH]cn1)[C@@H](C)O)C(C)C)C(C)C)C(=O)N[C@@H](C)C(=O)N[C@@H](CC(N)=O)C(=O)N[C@H](C(N)=O)[C@@H](C)O [Peptide 379] (H-H[Aib]HGS[αMeF]TSDVSK[αMeF]LDSRAAQD[αMeF]VK([AEEA-AEEA-γGlu-C18 diacid])SIANT-NH2)

Row | Compound | % Relative Potency Ratio
5 | CC[C@H](C)[C@H](NC(=O)[C@H](Cc1c[nH]c2ccccc12)NC(=O)[C@H](CCCCNC(=O)COCCOCCNC(=O)COCCOCCNC(=O)CC[C@H](NC(=O)CCCCCCCCCCCCCCCCC(=O)O)C(=O)O)NC(=O)[C@@H](NC(=O)[C@H](Cc1ccccc1)NC(=O)[C@H](CC(=O)O)NC(=O)[C@H](CCC(N)=O)NC(=O)[C@H](C)NC(=O)[C@H](C)NC(=O)[C@H](CCC(N)=O)NC(=O)[C@H](CO)NC(=O)[C@H](CC(=O)O)NC(=O)[C@H](CC(C)C)NC(=O)[C@](C)(Cc1ccccc1)NC(=O)[C@H](CCCCN)NC(=O)[C@H](CO)NC(=O)[C@@H](NC(=O)[C@H](CC(=O)O)NC(=O)[C@H](CO)NC(=O)[C@@H](NC(=O)[C@](C)(Cc1ccccc1)NC(=O)[C@H](CO)NC(=O)CNC(=O)[C@H](Cc1c[nH]cn1)NC(=O)C(C)(C)NC(=O)[C@@H](N)Cc1c[nH]cn1)[C@@H](C)O)C(C)C)C(C)C)C(=O)N[C@@H](C)C(=O)N[C@@H](CC(N)=O)C(=O)N[C@H](C(=O)NCC(=O)NCC(N)=O)[C@@H](C)O [Peptide 350] (H-H[Aib]HGS[αMeF]TSDVSK[αMeF]LDSQAAQDFVK([AEEA-AEEA-γGlu-C18 diacid])WIANTGG-NH2; N-terminus assumed) | 8.6
6 | CC[C@H](C)[C@H](NC(=O)[C@H](Cc1c[nH]c2ccccc12)NC(=O)[C@H](CCCCNC(=O)COCCOCCNC(=O)COCCOCCNC(=O)CC[C@H](NC(=O)CCCCCCCCCCCCCCCCC(=O)O)C(=O)O)NC(=O)[C@@H](NC(=O)[C@H](Cc1ccccc1)NC(=O)[C@H](CC(=O)O)NC(=O)[C@H](CCC(N)=O)NC(=O)[C@H](C)NC(=O)C(C)(C)NC(=O)[C@H](CCCNC(=N)N)NC(=O)[C@H](CO)NC(=O)[C@H](CC(=O)O)NC(=O)[C@H](CC(C)C)NC(=O)[C@](C)(Cc1ccccc1)NC(=O)[C@H](CCCCN)NC(=O)[C@H](CO)NC(=O)[C@@H](NC(=O)[C@H](CC(=O)O)NC(=O)[C@H](CO)NC(=O)[C@@H](NC(=O)[C@](C)(Cc1ccccc1)NC(=O)[C@H](CO)NC(=O)CNC(=O)[C@H](Cc1c[nH]cn1)NC(=O)C(C)(C)NC(=O)[C@@H](N)Cc1c[nH]cn1)[C@@H](C)O)C(C)C)C(C)C)C(=O)N[C@@H](C)C(=O)N[C@@H](CC(N)=O)C(=O)N[C@H](C(N)=O)[C@@H](C)O [Peptide 365, H(Aib)HGS(αMePhe)TSDVSK(αMePhe)LDSR(Aib)AQDFVK(O2Oc-O2Oc-γE-C18diacid)24WIANT-amide] (H-H[Aib]HGS[αMeF]TSDVSK[αMeF]LDSR[Aib]AQDFVK([AEEA-AEEA-γGlu-C18 diacid])WIANT-NH2; N-terminus assumed) | 0.3
7 | CC[C@H](C)[C@H](NC(=O)[C@H](Cc1c[nH]c2ccccc12)NC(=O)[C@H](CCCCNC(=O)COCCOCCNC(=O)COCCOCCNC(=O)CC[C@H](NC(=O)CCCCCCCCCCCCCCCCC(=O)O)C(=O)O)NC(=O)[C@@H](NC(=O)[C@H](Cc1ccccc1)NC(=O)[C@H](CC(=O)O)NC(=O)[C@H](CCC(N)=O)NC(=O)[C@H](C)NC(=O)[C@H](C)NC(=O)[C@H](CCC(N)=O)NC(=O)[C@H](CO)NC(=O)[C@H](CC(=O)O)NC(=O)[C@H](CC(C)C)NC(=O)[C@](C)(Cc1ccccc1)NC(=O)[C@H](CCCCN)NC(=O)[C@H](CO)NC(=O)[C@@H](NC(=O)[C@H](CC(=O)O)NC(=O)[C@H](CO)NC(=O)[C@@H](NC(=O)[C@](C)(Cc1ccccc1)NC(=O)[C@H](CO)NC(=O)CNC(=O)[C@@H](NC(=O)C(C)(C)NC(=O)[C@@H](N)Cc1c[nH]cn1)[C@@H](C)CC)[C@@H](C)O)C(C)C)C(C)C)C(=O)N[C@@H](C)C(=O)N[C@@H](CC(N)=O)C(=O)N[C@H](C(N)=O)[C@@H](C)O [Peptide 358] (H-H[Aib]IGS[αMeF]TSDVSK[αMeF]LDSQAAQDFVK([AEEA-AEEA-γGlu-C18 diacid])WIANT-NH2; N-terminus assumed) | 424.1

Same assay, conditions: Table 9; % GLP-1R activity relative to GLP-1 / % GlucR activity relative to glucagon

Row | % Relative Potency Ratio | Compound
8 | 9.3 | HSQGS(αMePhe)TSDK((PEG)2-(PEG)2-γE-γE-Stearoyl)10SK(Dip)LDS(ß-dimethylArg)AAQD(αMePhe)VE(Aib)LANT-amide [Peptide 393]
